{"source": "patent US20160152579A1", "about": "“OXAZOLIDINONE DERIVATIVES AS PPAR LIGANDS” (CONSEJO SUPERIOR DE INVESTIGACIONES CIENTÍFICAS (CSIC), priority 2013, published 2016)", "key": {"[1]": {"target": "T1, human PPAR-alpha receptor (Homo sapiens, UniProt Q07869)", "T1 construct": "expressed in transfected cells; host or cells: MCF-7 human breast cancer cells, pSG5 expression vector", "T1 sequence (Q07869 whole entry)": "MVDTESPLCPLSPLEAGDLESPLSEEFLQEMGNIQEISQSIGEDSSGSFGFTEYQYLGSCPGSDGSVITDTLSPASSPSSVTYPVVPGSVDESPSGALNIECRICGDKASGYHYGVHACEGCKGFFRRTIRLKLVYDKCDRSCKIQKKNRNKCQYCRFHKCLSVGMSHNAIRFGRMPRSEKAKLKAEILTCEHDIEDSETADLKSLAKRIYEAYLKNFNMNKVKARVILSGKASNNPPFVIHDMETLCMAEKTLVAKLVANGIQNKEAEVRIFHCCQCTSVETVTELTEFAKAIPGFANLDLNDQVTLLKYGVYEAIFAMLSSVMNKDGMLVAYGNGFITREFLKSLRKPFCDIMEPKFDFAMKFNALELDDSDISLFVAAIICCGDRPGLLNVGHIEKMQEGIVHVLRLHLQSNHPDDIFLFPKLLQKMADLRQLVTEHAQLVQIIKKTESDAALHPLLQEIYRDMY", "T1 sequence (P19793 whole entry partner)": "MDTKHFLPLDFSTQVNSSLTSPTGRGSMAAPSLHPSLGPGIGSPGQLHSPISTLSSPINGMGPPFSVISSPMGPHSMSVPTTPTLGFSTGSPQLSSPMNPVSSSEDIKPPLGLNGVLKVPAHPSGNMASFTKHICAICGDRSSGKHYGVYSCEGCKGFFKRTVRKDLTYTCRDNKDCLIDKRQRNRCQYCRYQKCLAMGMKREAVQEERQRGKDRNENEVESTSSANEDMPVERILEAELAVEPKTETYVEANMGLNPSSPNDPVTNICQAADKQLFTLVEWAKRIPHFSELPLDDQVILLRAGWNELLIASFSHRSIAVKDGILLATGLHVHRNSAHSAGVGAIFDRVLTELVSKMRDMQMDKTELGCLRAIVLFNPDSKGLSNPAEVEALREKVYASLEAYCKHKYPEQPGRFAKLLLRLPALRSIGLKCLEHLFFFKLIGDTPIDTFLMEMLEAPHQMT", "T1 sequence (Q15788 whole entry partner)": "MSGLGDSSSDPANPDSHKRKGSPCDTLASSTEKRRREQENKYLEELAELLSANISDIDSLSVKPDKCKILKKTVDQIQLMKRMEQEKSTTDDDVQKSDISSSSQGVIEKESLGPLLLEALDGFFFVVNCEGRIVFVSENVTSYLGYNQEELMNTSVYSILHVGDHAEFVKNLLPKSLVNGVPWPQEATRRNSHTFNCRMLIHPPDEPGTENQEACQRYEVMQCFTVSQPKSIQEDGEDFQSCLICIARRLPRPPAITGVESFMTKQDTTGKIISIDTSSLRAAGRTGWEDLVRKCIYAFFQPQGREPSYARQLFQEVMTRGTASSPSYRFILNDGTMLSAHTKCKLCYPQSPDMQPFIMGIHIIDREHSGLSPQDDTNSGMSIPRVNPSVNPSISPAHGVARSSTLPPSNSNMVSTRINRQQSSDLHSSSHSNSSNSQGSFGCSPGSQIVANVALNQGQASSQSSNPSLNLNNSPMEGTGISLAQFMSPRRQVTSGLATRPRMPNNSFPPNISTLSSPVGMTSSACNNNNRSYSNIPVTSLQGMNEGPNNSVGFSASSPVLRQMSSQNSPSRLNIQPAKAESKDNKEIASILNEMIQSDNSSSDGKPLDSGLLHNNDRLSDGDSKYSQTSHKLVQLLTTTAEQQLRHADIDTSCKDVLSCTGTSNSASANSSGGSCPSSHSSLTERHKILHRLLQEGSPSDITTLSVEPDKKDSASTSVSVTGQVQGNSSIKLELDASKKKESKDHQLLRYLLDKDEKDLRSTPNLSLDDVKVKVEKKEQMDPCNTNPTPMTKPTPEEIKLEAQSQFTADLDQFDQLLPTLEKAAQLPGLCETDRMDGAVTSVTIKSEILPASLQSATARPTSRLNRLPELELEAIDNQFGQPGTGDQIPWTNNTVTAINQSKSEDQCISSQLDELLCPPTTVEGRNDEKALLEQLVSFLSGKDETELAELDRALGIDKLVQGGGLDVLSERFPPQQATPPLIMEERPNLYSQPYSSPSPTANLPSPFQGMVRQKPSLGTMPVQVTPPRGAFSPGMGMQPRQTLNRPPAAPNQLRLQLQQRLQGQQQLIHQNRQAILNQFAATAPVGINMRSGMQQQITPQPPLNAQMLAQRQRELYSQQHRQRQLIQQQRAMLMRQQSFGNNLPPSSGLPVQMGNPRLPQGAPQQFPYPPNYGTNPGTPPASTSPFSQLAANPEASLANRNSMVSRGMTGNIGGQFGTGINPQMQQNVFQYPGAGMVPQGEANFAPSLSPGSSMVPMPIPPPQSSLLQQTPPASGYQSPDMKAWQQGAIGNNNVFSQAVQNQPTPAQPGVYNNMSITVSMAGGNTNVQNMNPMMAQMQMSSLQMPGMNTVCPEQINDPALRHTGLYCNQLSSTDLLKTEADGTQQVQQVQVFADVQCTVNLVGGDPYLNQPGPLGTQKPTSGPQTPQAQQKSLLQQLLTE", "experiment": "Cell transfection and luciferase reporter gene assay, PPAR-alpha activation in MCF-7 cells", "assay_type": "cell-based", "settings": "luciferase reporter, 16 h treatment", "procedure": "(§1) The reporter gene assay is an in vitro method used to determine and quantify the existence of physical interactions between proteins, useful for confirming in this case the interaction of the transcription factors PPAR-alpha with co-activator SRC-1, and PPAR-gamma with PPRE in MCF-7 cells.\n(§2) For the in vitro experiments, with cell culture all the compounds were dissolved and diluted in dimethylsulfoxide (DMSO) (Sigma Aldrich Spain).\n(§3) DNA constructs: Eukaryotic pSG5 expression vector (4100 base pairs, Stratagene Co.) was used as the cDNA expression vehicle for human PPAR-alpha receptor and PPAR-gamma receptor. This construction was used for the in vivo overexpression of the protein in mammalian cells.\n(§4) Four copies of the human CPTI gene DR1-type RE (sequence […]) (Ref: Tinahones F J, Moreno-Santos I, Vendrell J, Chacon M R, Garrido-Sanchez L, Garcia-Wasntes E, and Macias-Gonzalez M. Obesity 2012, 20: 488-497) were individually fused with the thymidine kinase promoter in the pGL-2 Basic vector (5598 base pairs, Promega Co.), which lacks a eukaryotic promoter and contains a firefly (Photinus pyralis) luciferase reporter gene. This vector is widely used in the quantitative analysis of factors capable of regulating gene expression in mammalian cells. This pGL-2 Basic vector also has an ampicillin resistance region (gene for β-lactamase). […]"}, "[2]": {"target": "T2, human PPAR-gamma receptor (Homo sapiens, UniProt P37231)", "T2 construct": "expressed in transfected cells; host or cells: MCF-7 human breast cancer cells, pSG5 expression vector", "T2 sequence (P37231 1-505)": "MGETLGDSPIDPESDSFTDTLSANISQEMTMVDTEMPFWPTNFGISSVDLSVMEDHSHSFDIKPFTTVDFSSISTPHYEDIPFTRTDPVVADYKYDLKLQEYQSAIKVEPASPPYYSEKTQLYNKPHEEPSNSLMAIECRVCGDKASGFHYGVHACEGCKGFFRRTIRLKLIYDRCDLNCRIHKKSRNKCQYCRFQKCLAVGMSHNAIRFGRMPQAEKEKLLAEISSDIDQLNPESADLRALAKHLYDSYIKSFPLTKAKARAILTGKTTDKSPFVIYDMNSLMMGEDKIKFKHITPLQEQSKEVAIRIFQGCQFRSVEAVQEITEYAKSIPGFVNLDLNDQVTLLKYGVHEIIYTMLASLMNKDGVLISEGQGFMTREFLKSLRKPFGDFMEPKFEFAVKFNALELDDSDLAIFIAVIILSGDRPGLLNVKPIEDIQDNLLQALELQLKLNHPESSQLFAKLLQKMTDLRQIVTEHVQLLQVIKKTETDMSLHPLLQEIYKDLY", "experiment": "Cell transfection and luciferase reporter gene assay, PPAR-gamma activation in MCF-7 cells", "assay_type": "cell-based", "settings": "luciferase reporter, 16 h treatment", "procedure": "as §1, §2, §3, §4"}, "Male Wistar albino rats": {"system": "Male Wistar albino rats", "experiment": "In vivo assay on food ingestion, acute treatment", "parameters": "species or system Rattus Norvegicus", "settings": "for course of the effect on food ingestion over time (30-240 min) / reduction of food ingestion: rats fasted 24 h", "procedure": "Male Wistar albino rats (Rattus Norvegicus) from Charles Rivers Laboratories España, S. A. (Barcelona, Spain), were used, having weights ranging between 300-350 g at the start of the experiments. The animals were caged individually, in controlled temperature (22° C.) and moisture (55%) conditions under a 12-hour light/dark cycle (light off from 8:00 AM to 8:00 PM). The rats had free access to food and water in their corresponding cages. All the training and experimental sessions were carried out after 8:00 PM hours.\nAll the drugs were prepared in fresh conditions in a solution consisting of 5% Tween-80 in sterile physiological serum. The different doses were prepared in different vials such that Tween-80 was added after weighing the necessary amount of compound. The compound, with its corresponding volume of surfactant, was sonicated and homogenized (with the aid of a magnetic stirrer) for 15-30 minutes. Then, the necessary volume of serum was added until completing the solution.\nThe compounds were administered intraperitoneally (i.p.) in an acute manner in an administration volume of 1 ml per kg of animal.\nBefore starting the ingestion experiments, the animals were habituated to being handled. For this purpose, 48-72 hours before each experimental session, the rats were placed in cages where the base material (sawdust) was removed, and small containers with food were placed in the cages for 4 hours. After this initial habituation phase, the animals were deprived of food for 24 hours, always having free access to water.\nAfter said fasting period, the different treatment groups were established, and the base material was removed from the cages, weighing the animals and weighing the small containers with food (commercial laboratory feed). Additionally, the water container was weighed. 15 minutes after administering the compounds, the respective weighed food container was given to each animal, and it was again weighed at different times (30, 60, 120 and 240 minutes). In one case it was weighed 24 hours after being given.\nFood consumption was represented as relative accumulated consumption (g of food per kg of animal). The water containers were also weighed at the end of the experiment."}}, "data": [{"molecule": "CC(C)(C)c1ccc(CNC(=O)c2ccc(NC(=O)c3cccc(CN4C(=O)OC[C@H]4Cc4ccccc4)c3)cc2)cc1", "note": "[Compound 1, (R)-3-((4-benzyl-2-oxooxazolidin-3-yl)methyl)-N-(4-((4-(tert-butyl)benzyl)carbamoyl)phenyl)benzamide]", "values": [{"measurement": "EC50", "setting": "[1]", "result": "0.67 ± 0.157", "unit": "µM"}, {"measurement": "EC50", "setting": "[2]", "result": 1.29, "unit": "µM"}, {"measurement": "course of the effect on food ingestion over time (30-240 min)", "setting": "Male Wistar albino rats; acute i.p. administration", "result": "effect disappearing 240 minutes after the administration"}, {"measurement": "reduction of food ingestion", "setting": "Male Wistar albino rats; effective dose 3.0 mg/kg i.p., FIG. 1", "result": "about 50%"}]}, {"molecule": "CCCCCNC(=O)c1ccc(NC(=O)c2cccc(CN3C(=O)OC[C@H]3Cc3ccccc3)c2)cc1", "note": "[Compound 5, (R)-3-((4-benzyl-2-oxooxazolidin-3-yl)methyl)-N-(4-(pentylcarbamoyl)phenyl)benzamide]", "values": [{"measurement": "EC50", "setting": "[1]", "result": "0.821 ± 0.139", "unit": "µM"}, {"measurement": "EC50", "setting": "[2]", "result": 1.62, "unit": "µM"}, {"measurement": "effect on accumulated food ingestion 24 hours after administration", "setting": "Male Wistar albino rats; 24 h after i.p. administration, FIG. 3", "result": "still has an effect 24 hours after administration"}, {"measurement": "dose dependence of the effect on food ingestion", "setting": "Male Wistar albino rats; acute i.p. administration, FIG. 2", "result": "active in a dose-dependent manner"}, {"measurement": "course of the effect on food ingestion over time (30-240 min)", "setting": "Male Wistar albino rats; acute i.p. administration", "result": "effect maintained over time after 240 minutes"}, {"measurement": "reduction of food ingestion", "setting": "Male Wistar albino rats; effective dose 1.0 mg/kg i.p., FIG. 2", "result": "about 50%"}]}]}
